Results reported in US20080242594A1, “Methods for Promoting Stem Cell Proliferation and Survival” (priority 2005, published 2008).

How the values were obtained:
[1] = test system: E13.5 cortical stem cells; experiment: Differentiation potential of embryonic CNS stem cells after Notch ligand treatment; assay type: cell-based, mouse; conditions: 5 days treatment in bFGF2 20 ng/ml, then mitogen withdrawal (WD) 3 days
Protocol: To test whether Notch activation promoted differentiation or fate commitment, these cultures were treated with either Jagged-1 or Delta-4 for 5 days, […] The proportion of cells expressing genes characteristic of the stem or differentiated cells was determined (FIG. 8A).
The multipotentiality of treated cells was tested more rigorously by plating them at clonal density (50 cells/cm^2). Following five days of Delta-4+FGF2 treatment and 5 days of differentiation, 65% of the clones contained GFAP+, TUJ1+, and CNPase+ cells (FIG. 8B).

Adult SVZ CNS SC = experiment: Multi-potentiality of adult CNS stem cells after mitogen withdrawal; assay type: cell-based, rat; conditions: FGF2 20 ng/ml 7 days, mitogen withdrawal 7 days
Protocol: Very little protein or mRNA were detected outside the SVZ (FIG. 4g). Adult CNS stem cells can be cultured as a monolayer in vitro (FIG. 4h) and they show similar responses to extracellular signals that regulate stem cell differentiation upon withdrawal of the mitogen that sustains the undifferentiated state (Johe et al., Genes Dev 10:3129-40, 1996). To ask if Notch activation promotes survival in rat adult SVZ cultures, isolated cells were grown in the presence of FGF2 with and without Delta-4 for one week. […] When FGF2 was withdrawn for a week, cells at clonal density generated all three CNS lineages (FIG. 8C, Table 4).

HSF6 hES cells = experiment: hES single cell plating efficiency, HSF-6; assay type: cell-based, human; conditions: singly dissociated cells on MEFs, treated daily for one week
From the text: The human ES cell lines HSF-6 (University of California, San Francisco; NIH # UC06, Passage 38-120) and H1 and H9 (WiCell Research Institute, NIH # WA01 and […]) were maintained on mouse embryonic fibroblasts (MEF) according to the suppliers' protocols. Immunocytochemistry and FACS analysis for the expression of Oct4 and SSEA4 and SKY karyotyping established that the starting cells are undifferentiated and have a normal set of chromosomes. For single cell survival experiments, hES colonies were harvested after treatment with 1.5 mg/ml collagenase type IV (Invitrogen), separated from the MEF feeder cells by repeated washing by gravity, gently triturated to break up colonies into small aggregates, further dissociated into a single cell solution by trypsination (0.05% trypsin/0.04% EDTA) and transferred on MEF feeder cells at a density of 10000 cells/ml. Oct-4 positive colonies were counted six days after plating. […]
The pro-survival effects of activation of Notch and inhibition of JAK was tested on HSF-6 (NIH code UC06, http://escell.ucsf.edu), H1 (NIH code WA01, www.wicell.org) and H9 (NIH code WA09, www.wicell.org) hES cells. Singly dissociated hES cells were plated on mouse embryo fibroblasts (MEFs), treated daily for one week and colony numbers counted. […]

adult rats = experiment: Intraventricular infusion in normal adult rats, BrdU labeled cells; assay type: in vivo, rat
Protocol: In-vivo Experiments: All drugs were infused over one week using an Alzet osmotic pump (model 2001 delivering at a rate of 1 μl/hr for seven days). Briefly, an intracerebral cannula connected to the pump was inserted into the right lateral ventricle using the following stereotaxic coordinates: bregma AP +0, Lateral −1.5 mm dorso-ventral 3.3 mm. Animals received IP injection of the tracer BrdU (50 mg/kg) every 12 hours for 5 days beginning on day one post-operatively to label dividing cells.
(§1) Immuno-positive cells were analyzed by confocal microscopy counted using a non-biased system on slides obtained from homologous coronal slices containing the infarct of each animal at the position between +0.2 and −3.8 mm from the center of the bregma according to stereotaxic coordinates. Cells were enumerated in […] regions of interest, on both the ipsilateral and contralateral hemispheres (to cannula, or cannula and ischemic focus): subventricular zone (SVZ), corpus callosum and white matter and the peri-infarct cortex.
The effect of intraventricular administration of Delta-4 was studied in adult rats. As in other tissues, the numbers of stem cells in the adult CNS are precisely controlled. […] In vivo manipulations were designed to ask if Notch ligands can act alone or substantially alter the effect of FGF2 on the numbers of proliferating cells in the SVZ of the normal brain. Animals (N=5-6 per treatment) were fitted with a mini-osmotic pump administering artificial cerebrospinal fluid (ACSF, vehicle), FGF2, Delta-4, or a combination FGF2+Delta-4 for one week into the ventricles of three-month old rats. Animals were also given twice-daily injections of bromodeoxyuridine (BrdU) from post-op days two to six to label cells generated during this time window. Two groups of animals were analyzed at day 7 and day 45 relative to the initiation of protein delivery. Delta-4 doses were chosen to provide a roughly equal concentration in the rat adult cerebrospinal fluid as in the cell culture medium of our in vitro experiments.

[2] = test system: spontaneously hypertensive rats (SHR) with permanent middle cerebral artery occlusion; experiment: Focal ischemia (PMCAO) in rats with intraventricular infusion; assay type: in vivo, rat; conditions: stroked animals
Protocol: For the induction of focal ischemia in rats, male spontaneously hypertensive rats (SHR) underwent permanent middle cerebral artery occlusion (PMCAO) (Leker et al., Stroke 33:1085-92, 2002). This is a highly reproducible model of focal irreversible cerebral ischemia that results in isolated fronto-parietal cortical injury. For motor disability evaluations, animals were analyzed with a standard motor disability protocol (Leker et al., Stroke 34:2000-6, 2003).
as §1
There is growing evidence for an endogenous repair process following injury to the telencephalon. […]
Treatment with Notch ligand with or without FGF2 increased the number of cells that were BrdU labeled in the days immediately following the injury and these cells survived for an additional 5 weeks (FIG. 6d). […] The behavior of animals in the 45 day groups were assessed at the indicated time points.

## FGF2: fibroblast growth factor FGF2 (233-FB) from R&D
[1]
  % Glia (GFAP): 49.53 ± 4.79%
  % Neurons (TUJ1): 42.37 ± 6.85%
  % Oligodendrocytes (CNPase): 9.12 ± 2.82%
Adult SVZ CNS SC
  % Glia (GFAP): 51.8 ± 10.3%
  % Neurons (TUJ1): 43.3 ± 10.7%
  % Oligodendrocytes (CNPase): 9.4 ± 2.6%
HSF6 hES cells
  plating efficiency relative to FGF2 controls: 100%±15.35
Adult rats; day 7, contralateral site
  number of proliferating cells / BrdU incorporation: no significant effect over vehicle
Adult rats; day 7, hemisphere ipsilateral to the cannula
  number of BrdU labeled cells in SVZ, corpus callosum and cortex: increased the number of BrdU labeled cells
[2]
  size of the injury: 21.0%±3.5 % of hemisphere volume
